Assay results reported in patent US20220267258A1, “ROBENIDINE ANALOGS AS POTENT ANTIMALARIALS AGAINST DRUG-RESISTANT PLASMODIUM FALCIPARUM” (OREGON HEALTH & SCIENCE UNIVERSITY, priority 2021, published 2022).
Where a name gives a salt, the structure may show the parent alone. Read-outs that look alike come from different tables or passages of the source.

Experiments:
[1] = system: Plasmodium yoelii; experiment: modified 4-day Peters test, murine malaria; type: in vivo, mice; conditions: for P. yoelii ED50 / P. yoelii ED90: oral gavage days 1-4, parasitemia day 5; for P. yoelii NRD (non-recrudescence dose, cure dose): oral, doses up to 25 mg/kg/day, no parasites at day 30
Experimental: In this modified 4-day Peters test,^41 mice were inoculated with parasites from a donor mouse (day 0), and then dosed orally with drugs on each of the subsequent four days (days 1-4). On day 5 of the experiment, the parasitemia for each mouse was determined microscopically by examining methanol-fixed and Giemsa-stained blood smears. The ED50 represents the interpolated dose of a compound at which parasitemia was suppressed to one half that of untreated controls. Similarly, the ED90 represents the dose at which parasitemia is suppressed ten-fold. Mice were considered cured of their infection if no parasites were detected in the blood 30 days from the first drug administration, and the non-recrudescence dose (NRD) represents the lowest dose to achieve a cure.
The in vivo ED50 and ED90 of selected aminoguanidines was measured using a modified 4-day Peters test. Female CF1 mice from Charles River Laboratories were inoculated intravenously with approximately 2.5-5.0×10^4 parasitized erythrocytes (murine malaria P. yoelii, Kenya strain MR4 MRA-428) from a donor mouse (experiment day zero). On the following four days (experiment days 1-4), solutions of the test compounds in PEG-300 (or PEG-300 only for control mice) were administered by oral gavage once daily. […] Parasitemia of each mouse was determined by microscopic examination of Giemsa stained blood smears on day 5. ED50 and ED90 values were assessed by generating dose-response curves relative to untreated controls using Graphpad Prism (v. 8). Mice were considered cured of malarial infection if they maintained 0% parasitemia at experiment day 30. The procedures involved, together with all matters relating to the care, handling, and housing of the animals used in this study, were approved by the Portland VA Medical Center Institutional Animal Care and Use Committee.

[2] = system: P. falciparum Dd2; experiment: SYBR Green growth inhibition assay, P. falciparum Dd2; type: cell-based, Plasmodium falciparum; conditions: read-out: IC50 Dd2
Experimental: (§1) In addition to the drug-sensitive P. falciparum D6 strain, the aminoguanidines were assessed against three drug-resistant strains (Tables 1-3).
(§2) The following parasite strains were used in this study and obtained through BEI Resources, NIAID, NIH. […] The culture medium used was RPMI-1640, supplemented with 25 mM HEPES buffer, 25 mg/L gentamicin sulfate, 45 mg/L hypoxanthine, 10 mM glucose, 2 mM glutamine, and 0.5% Albumax II (complete medium).^43 Cultures were maintained in a standard low oxygen atmosphere (5% O2, 5% CO2, 90% N2) in an environmental chamber and incubated at 37° C. Cultures were sub-passaged every 3-4 days into a fresh culture flask containing complete media and erythrocytes.
(§3) The aminoguanidine series was assessed for in vitro antiplasmodial activity using the fluorescence-based SYBR Green assay described previously by Smilkstein and co-workers.^38 Compounds were evaluated in quadruplicate in flat-bottomed Costar clear 96-well plates (Model #3585). A two-fold serial dilution of each compound was performed across the columns of the test plates starting with 20 μM and ending with a final untreated column to serve as control wells. Asynchronous parasite infected erythrocytes in growth media were added to each well for a total volume of 100 μL, final hematocrit of 2%, and initial parasitemia of 0.2%. The commercial malaria drugs atovaquone and chloroquine were used as control drugs. Test plates were incubated for 72 hr at 37° C. in an environmental chamber with a controlled low oxygen atmosphere (5% O2, 5% CO2, 90% N2). After the incubation period, 100 μL SYBR Green I dye-detergent solution was added to each well, and the plates were incubated at ambient temperature and atmosphere in the dark for at least one hour. Fluorescence was read at 497 nm excitation and 520 nm emission bands using a Spectramax iD3 plate reader. Fluorescence readings were normalized with respect to the untreated control wells representing normal parasite growth and plotted against the logarithm of drug concentration.

[3] = system: human hepatoma derived HepG2 cells; experiment: HepG2 cytotoxicity assay (resazurin); type: cell-based; conditions: for IC50: HepG2, 24 hr drug, 24 hr recovery
Experimental: (§4) In this assay, HepG2 cells were incubated with test compounds for 24 hours, followed by a 24-hour recovery period and subsequent staining to evaluate for cytotoxic effects with resazurin. The ratio of the resulting HepG2 IC50 value to the P. falciparum D6 IC50 value can be considered an ‘in vitro therapeutic index,’ or IVTI.
(§5) Compounds were prepared as 10 mM stock solutions in DMSO. […] HepG2 cells were added to each well of flat bottom 96-well tissue culture plates at an initial density of 2×10^4 cells per well, and an initial volume of 160 μL complete medium per well. After an overnight incubation at 37° C. to adhere the cells to the culture plates, 40 μL drug solutions in complete medium were applied to each well at a final concentration range of 0 to 200 μM across each plate. Drugs were tested in triplicate or quadruplicate. The cells were incubated for 24 hours at 37° C. and 5% CO2 with the drug solutions, which were then aspirated and replaced with 200 μL per well of complete medium for an additional 24 hour incubation under the same conditions. To each well was added 20 μL of resazurin (Alamar Blue) in PBS buffer to a final concentration of 10 μM, and the plates were incubated for 3 hours. Fluorescence was measured at 560 nm excitation and 590 nm emission bands using a Spectramax iD3 plate reader. Fluorescence readings were normalized with respect to the untreated control wells and plotted against the logarithm of drug concentration.

[4] = system: P. falciparum Tm90-C2B; experiment: SYBR Green growth inhibition assay, P. falciparum Tm90-C2B; type: cell-based, Plasmodium falciparum; conditions: read-out: IC50 Tm90-C2B
Experimental: as §1, §2, §3

[5] = system: P. falciparum A6; experiment: SYBR Green growth inhibition assay, P. falciparum A6; type: cell-based, Plasmodium falciparum; conditions: read-out: IC50 A6
Experimental: as §1, §2, §3

[6] = HepG2 cytotoxicity assay (resazurin); type: cell-based, human; conditions: human, HepG2 cells; HepG2, 24 hr drug, 24 hr recovery
Experimental: as §4, §5

[7] = system: P. falciparum strain D6; experiment: SYBR Green growth inhibition assay, P. falciparum D6; type: cell-based, Plasmodium falciparum; conditions: read-out: IC50 D6
Experimental: (§6) The in vitro activity of each compound in the aminoguanidine library was assessed against asynchronous cultures of Plasmodium falciparum parasites replicating within human erythrocytes (Tables 1-3). As the chemical development of robenidine was not discussed in its original publication in 1970^4 and limited structural information is available regarding its mechanism of action,^10 profiling was guided primarily by in vitro potency against the P. falciparum D6 strain cultured in human erythrocytes as described above.
as §2
as §3, with “The commercial malaria drugs atovaquone and chloroquine were used as control drugs.” left out

[8] = system: P. falciparum strains; type: cell-based, Plasmodium falciparum; conditions: D6, Dd2, Tm90-C2B, A6
Experimental: as §6
All aminoguanidines synthesized were also evaluated against three multi-drug resistant P. falciparum strains (Dd2, Tm90-C2B, and A6) and for mammalian cell cytotoxicity.
as §1
as §3, with “The commercial malaria drugs atovaquone and chloroquine were used as control drugs.” left out

[9] = system: P. falciparum Dd2 infected erythrocytes; experiment: SYBR Green assay adapted to 48, 72 or 96 hr incubation; type: cell-based; conditions: Plasmodium falciparum, DD2, Erythrocyte
Experimental: Many drugs have activity dependent on their exposure time in addition to concentration, and antimalarial potency is frequently stage-specific. To determine whether the aminoguanidines acted by a time-dependent mechanism against malaria parasites, the SYBR Green activity assay was adapted to include additional incubation intervals. Two potent aminoguanidines, 16 and 21, were incubated with P. falciparum Dd2 infected erythrocytes for 48, 72, or 96 hours (FIG. 3). […] A shorter incubation time allows for less parasite growth for all drug conditions, producing data with proportionally greater variability or ‘noise.’ Conversely, longer incubation times reduce noise in the resulting data.
Aminoguanidine activity appears to be driven primarily by drug concentration rather than by lengthening drug incubation time.
as §3

[10] = Plasmodium falciparum, DD2, 72 h
[11] = Plasmodium falciparum, TM90, 72 h
[12] = Plasmodium falciparum, D6, Erythrocyte, 72 h
[13] = multi-drug resistant strain, 72 hr
[14] = multi-drug resistant clinical isolate, also atovaquone resistant, 72 hr
[15] = mutant line resistant to respiratory antagonists, 72 hr
[16] = pan-sensitive strain, 72 hr, asynchronous cultures in human erythrocytes

SMILES | IC50 [2, 10] [nM] | IC50 [3] [nM] | IC50 [4, 11] [nM] | IC50 ([5]; Plasmodium falciparum, 72 h) [nM] | IC50 at 24 h [6] [nM] | IC50 [7, 12] [nM] | IC50 [2, 13] [nM] | IC50 [4, 14] [nM] | IC50 [5, 15] [nM] | IC50 [7, 16] [nM] | also measured
CCN(CC)CCCC(C)Nc1ccnc2cc(Cl)ccc12 (stereo not drawn) [Chloroquine, reference compound] | 70 | 181000 | 297 | 16 |  |  |  |  |  |  | cure in this model ([1]; 4-day oral dosing, 0% parasitemia at day 30): not curative
N=C(N/N=C/c1ccc(-n2cnnn2)cc1)N/N=C/c1ccc(-n2cnnn2)cc1 [Compound 35] | > 5000 |  | > 5000 | > 5000 | > 200000 | 838 |  |  |  |  | activity against all tested P. falciparum strains [8]: inactive
N=C(N/N=C/c1cccc(-n2cnnn2)c1)N/N=C/c1cccc(-n2cnnn2)c1 [Compound 34] | > 5000 |  | > 5000 | 4790 | 107000 | 1640 |  |  |  |  | activity against all tested P. falciparum strains [8]: inactive
N=C(NN=Cc1ccc([N+](=O)[O-])cc1)NN=Cc1ccc([N+](=O)[O-])cc1 [Compound 27] |  | > 200000 |  |  |  |  | 198 | 247 | 85 | 96 | 
N=C(N/N=C/c1ccc(OC(F)(F)F)cc1)N/N=C/c1ccc(OC(F)(F)F)cc1 [Compound 16] | 83 |  | 114 | 52 | 11000 | 39 |  |  |  |  | P. yoelii ED50 [1]: 1.2 mg/kg/day; P. yoelii ED90 [1]: 3.7 mg/kg/day; P. yoelii NRD (non-recrudescence dose, cure dose) [1]: 12.5 mg/kg/day; IC50 ([9]; 48 h, read-out: IC50 Dd2 48 hr): 410 nM; IC50 ([9]; 72 h, read-out: IC50 Dd2 72 hr): 195 nM; IC50 ([9]; 96 h, read-out: IC50 Dd2 96 hr): 192 nM
N=C(NN=Cc1ccc(S(N)(=O)=O)cc1)NN=Cc1ccc(S(N)(=O)=O)cc1 [Compound 31] |  | > 200000 |  |  |  |  | > 5000 | > 5000 | > 5000 | > 5000 | 
N#Cc1cccc(/C=N/NC(=N)N/N=C/c2cccc(C#N)c2)c1 [Compound 21] | 20 |  | 31 | 24 | 7000 | 7 |  |  |  |  | P. yoelii ED50 [1]: 7.1 mg/kg/day; P. yoelii ED90 [1]: 9.4 mg/kg/day; P. yoelii NRD (non-recrudescence dose, cure dose) [1]: >25 mg/kg/day; effect on Hep2G activity ([3]; concentrations as high as 200 μM): no measurable effect; IC50 ([9]; 48 h, read-out: IC50 Dd2 48 hr): 31 nM; IC50 ([9]; 72 h, read-out: IC50 Dd2 72 hr): 21 nM; IC50 ([9]; 96 h, read-out: IC50 Dd2 96 hr): 22 nM
O=C1C(O)=C([C@H]2CC[C@H](c3ccc(Cl)cc3)CC2)C(=O)c2ccccc21 [Atovaquone, reference compound] | < 1 | 72000 | > 5000 | > 5000 |  |  |  |  |  |  | IC50 ([7]; Plasmodium falciparum, D6, Erythrocyte, pan-sensitive strain, 72 hr, asynchronous cultures in human erythrocytes): < 1 nM
N=C(NN=Cc1ccc2c(c1)OC(F)(F)O2)NN=Cc1ccc2c(c1)OC(F)(F)O2 [Compound 36, 2,2′-Bis{[4-(2,2-difluoro-2,3-dioxazolo)]phenyl}methylene]carbonimidic Dihydrazide Hydrochloride] |  | > 200000 |  |  |  |  | 800 | 905 | 235 | 250 | 
